The source of these data is patent US20060281700A1, “SYNERGISTIC MODULATION OF FLT3 KINASE USING AMINOPYRIMIDINES KINASE MODULATORS” (priority 2005, published 2006).

The assay has as its target T1, wild-type FLT3 phosphorylation in Baf3 FLT3 cells (Homo sapiens, UniProt P36888).
T1 sequence (P36888 27-993): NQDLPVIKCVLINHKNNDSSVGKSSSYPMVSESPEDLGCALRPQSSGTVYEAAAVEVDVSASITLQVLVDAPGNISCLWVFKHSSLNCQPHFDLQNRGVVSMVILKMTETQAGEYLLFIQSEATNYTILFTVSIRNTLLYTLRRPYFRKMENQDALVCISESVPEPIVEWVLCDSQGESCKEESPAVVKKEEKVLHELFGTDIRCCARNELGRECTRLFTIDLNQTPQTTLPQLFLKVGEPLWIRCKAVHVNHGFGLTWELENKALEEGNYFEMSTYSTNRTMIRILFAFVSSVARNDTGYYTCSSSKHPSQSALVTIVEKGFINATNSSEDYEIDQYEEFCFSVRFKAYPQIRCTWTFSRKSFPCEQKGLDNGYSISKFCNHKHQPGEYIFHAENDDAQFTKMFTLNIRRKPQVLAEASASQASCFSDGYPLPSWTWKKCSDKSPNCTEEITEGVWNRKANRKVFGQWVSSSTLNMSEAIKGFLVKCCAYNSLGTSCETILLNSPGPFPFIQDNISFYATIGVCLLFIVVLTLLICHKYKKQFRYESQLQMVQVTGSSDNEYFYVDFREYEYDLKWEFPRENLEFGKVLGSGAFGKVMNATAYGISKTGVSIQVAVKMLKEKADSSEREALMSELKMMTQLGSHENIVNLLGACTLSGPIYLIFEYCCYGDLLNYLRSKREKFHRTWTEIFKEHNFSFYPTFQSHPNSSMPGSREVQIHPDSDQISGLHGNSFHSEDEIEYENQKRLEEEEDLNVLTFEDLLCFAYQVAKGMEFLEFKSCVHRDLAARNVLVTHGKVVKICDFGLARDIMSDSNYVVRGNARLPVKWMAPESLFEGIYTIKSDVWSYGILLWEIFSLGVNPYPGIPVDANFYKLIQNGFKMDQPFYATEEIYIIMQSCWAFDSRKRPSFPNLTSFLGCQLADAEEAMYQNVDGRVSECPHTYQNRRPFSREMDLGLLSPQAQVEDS
Kind of assay: Cell-Based FLT3 Receptor Elisa. Particulars: 1 hour compound, 100 ng/mL Flt ligand 10 min; uncertainty ±20%. As for the experimental part: Cell-Based FLT3 Receptor Elisa
Specific cellular inhibition of FLT ligand-induced wild-type FLT3 phosphorylation was measured in the following manner: Baf3 FLT3 cells overexpressing the FLT3 receptor were obtained from Dr. Michael Heinrich (Oregon Health and Sciences University). The Baf3 FLT3 cell lines were created by stable transfection of parental Baf3 cells (a murine B cell lymphoma line dependent on the cytokine IL-3 for growth) with wild-type FLT3. Cells were selected for their ability to grow in the absence of IL-3 and in the presence of FLT3 ligand.
Baf3 cells were maintained in RPMI 1640 with 10% FBS, penn/strep and 10 ng/ml FLT ligand at 37° C., 5% CO2. To measure direct inhibition of the wild-type FLT3 receptor activity and phosphorylation a sandwich ELISA method was developed similar to those developed for other RTKs (see Sadick, M D, Sliwkowski, M X, Nuijens, A, Bald, L, Chiang, N, Lofgren, J A, Wong W L T. Analysis of Heregulin-Induced ErbB2 Phosphorylation with a High-Throughput Kinase Receptor Activation Enzyme-Linked Immunsorbent Assay, Analytical Biochemistry. 1996; 235:207-214 and Baumann C A, Zeng L, Donatelli R R, Maroney A C. Development of a quantitative, high-throughput cell-based enzyme-linked immunosorbent assay for detection of colony-stimulating factor-1 receptor tyrosine kinase inhibitors. J Biochem Biophys Methods. 2004; 60:69-79.). 200 μL of Baf3FLT3 cells (1×10^6/mL) were plated in 96 well dishes in RPMI 1640 with 0.5% serum and 0.01 ng/mL IL-3 for 16 hours prior to 1 hour compound or DMSO vehicle incubation. Cells were treated with 100 ng/mL Flt ligand (R&D Systems Cat# 308-FK) for 10 min. at 37° C. Cells were pelleted, washed and lysed in 100 ul lysis buffer (50 mM Hepes, 150 mM NaCl, 10% Glycerol, 1% Triton-X-100, 10 mM NaF, 1 mM EDTA, 1.5 mM MgCl2, 10 mM NaPyrophosphate) supplemented with phosphatase (Sigma Cat# P2850) and protease inhibitors (Sigma Cat #P8340). Lysates were cleared by centrifugation at 1000×g for 5 minutes at 4° C. Cell lysates were transferred to white wall 96 well microtiter (Costar #9018) plates coated with 50 ng/well anti-FLT3 antibody (Santa Cruz Cat# sc-480) and blocked with SeaBlock reagent (Pierce Cat#37527). Lysates were incubated at 4° C. for 2 hours. Plates were washed 3× with 200 ul/well PBS/0.1% Triton-X-100. Plates were then incubated with 1:8000 dilution of HRP-conjugated anti-phosphotyrosine antibody (Clone 4G10, Upstate Biotechnology Cat#16-105) for 1 hour at room temperature. Plates were washed 3× with 200 ul/well PBS/0.1% Triton-X-100. Signal detection with Super Signal Pico reagent (Pierce Cat#37070) was done according to manufacturer's instruction with a Berthold microplate luminometer. All data points are an average of triplicate samples. […] Inhibition and IC50 data analysis was done with GraphPad Prism using a non-linear regression fit with a multiparamater, sigmoidal dose-response (variable slope) equation.

`CO/N=C/c1c(N)ncnc1N1CCC(NC(=O)Nc2ccc(Cl)cc2)CC1` [Number 25, 1-{1-[6-Amino-5-(methoxyimino-methyl)-pyrimidin-4-yl]-piperidin-4-yl}-3-(4-chloro-phenyl)-urea] displayed an IC50 of 78 nM.
In the case of `CO/N=C/c1c(N)ncnc1N1CCC(NC(=O)Nc2ccc(N3CCCCC3)cc2)C1` (stereo not drawn) [Number 9, 1-{1-[6-Amino-5-(methoxyimino-methyl)-pyrimidin-4-yl]-pyrrolidin-3-yl}-3-(4-piperidin-1-yl-phenyl)-urea] it was 127 nM; in that of `CO/N=C/c1c(N)ncnc1N1CCC(NC(=O)Nc2ccc(Oc3ccccc3)cc2)C1` (stereo not drawn) [Number 19, 1-{1-[6-Amino-5-(methoxyimino-methyl)-pyrimidin-4-yl]-pyrrolidin-3-yl}-3-(4-phenoxy-phenyl)-urea], 134 nM.
